Values of other authors in patent EP0112266B1, “Substituted tropyl and pseudotropyl benzoates and their use in migraine treatment” (MERRELL DOW FRANCE ET CIE, priority 1982, dated 1984).

How the values were obtained:
[1] = system: isolated guinea pig ileum; settings: stated in Schultz et al, 1972
[2] = slow intravenous injection, 10 mg
[3] = biological target: T1, 5-HT M-receptor (Oryctolagus cuniculus, UniProt G1TUQ4); settings: potency as 5-HT M-receptor antagonist; literature values (Fozard et al, Eur. J. Pharmacol. 1978/1979)
T1 sequence (G1TUQ4 24-513): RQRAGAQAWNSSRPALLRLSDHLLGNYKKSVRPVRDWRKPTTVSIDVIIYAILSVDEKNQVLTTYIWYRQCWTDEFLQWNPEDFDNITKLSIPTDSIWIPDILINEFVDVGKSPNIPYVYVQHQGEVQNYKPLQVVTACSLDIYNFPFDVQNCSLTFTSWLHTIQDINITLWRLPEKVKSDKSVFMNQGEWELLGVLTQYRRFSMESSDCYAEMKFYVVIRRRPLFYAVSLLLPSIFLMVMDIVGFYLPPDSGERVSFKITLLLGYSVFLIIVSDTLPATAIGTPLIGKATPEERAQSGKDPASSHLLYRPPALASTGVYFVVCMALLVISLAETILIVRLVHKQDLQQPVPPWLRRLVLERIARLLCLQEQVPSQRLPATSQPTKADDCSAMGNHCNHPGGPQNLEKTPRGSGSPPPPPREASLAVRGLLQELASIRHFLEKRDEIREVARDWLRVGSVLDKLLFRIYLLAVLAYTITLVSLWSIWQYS

## CN1[C@@H]2CC[C@H]1C[C@@H](OC(=O)c1ccccc1Cl)C2 [tropyl 2-chlorobenzoate]
[1]
  spasmolytic- inducing activity: spasmolytic- inducing activity

## CCN(CC)CCNC(=O)c1cc(Cl)c(N)cc1OC [metoclopramide]
[2]
  relief of acute migraine attack: immediate relief

## CN1[C@@H]2CC[C@H]1C[C@@H](OC(=O)c1ccccc1)C2 [benzoyl tropine]
[3]
  pA2: 7.2
